≈ marks a conversion by molar mass, not a printed value. Like-named read-outs stand apart in the source and are kept apart here. Marks after values point to notes of the source that are not given here.
Columns and labels:
S. aureus ATCC29213 [1] = assay: Frequency of development of resistant bacteria; assay type: cell-based, Staphylococcus aureus; details: for development of resistant bacteria (in words): S. aureus ATCC29213, 4 to 16 × MIC; for FREQUENCY OF DEVELOPMENT OF RESISTANT BACTERIA (AVERAGE OF TWO MEASURED VALUES): about 70 hours
Protocol: S. aureus ATCC29213 is Staphylococcus aureus, S. pneumoniae ATCC49619 is Streptococcus pneumoniae, and E. coli ATCC25922 is Escherichia coli. […]
The frequency of development of resistant bacteria was calculated by dividing the number of colonies developed on an agar medium having each drug concentration by the number of initially inoculated bacteria.

S. pneumoniae KY-9 = assay: Antibacterial activity against Streptococcus pneumoniae in vitro, CLSI microdilution; assay type: cell-based; details: KY9
Protocol: The antibacterial activities in vitro of the compound D, garenoxacin, and levofloxacin against a strain in a mouse infected with Streptococcus pneumoniae (S. pneumonia KY-9) were measured in accordance with a CLSI microdilution method.

S. aureus MS5935 2nd = assay: microbe, parasite or virus in culture; assay type: cell-based; details: Staphylococcus aureus, MS59352ND
[2] = AUC and Cmax, plasma concentration by HPLC after repeated oral doses; assay type: in vivo; details: male, human, Japanese healthy adult males, oral 75 mg once daily for seven days, day 7, plasma
Protocol: Six Japanese healthy adult males received oral doses of 75 mg compound D once daily for seven consecutive days. The plasma concentration of compound D was measured by the HPLC method, and the pharmacokinetic parameters were calculated.

S. pneumoniae ATCC49619 = assay: microbe, parasite or virus in culture; assay type: cell-based; details: Streptococcus pneumoniae
S. pneumoniae NF9884 = assay: microbe, parasite or virus in culture; assay type: cell-based; details: Streptococcus pneumoniae
[3] = Clinical efficacy (cure rate) in patients with community-acquired pneumonia; assay type: in vivo, human; details: oral 75 mg once daily for 7 days, seven days after treatment completion
Protocol: We investigated efficacy of compound D for the patients with community-acquired pneumonia. 50 patients with community-acquired pneumonia were orally administered 75 mg of compound D once daily for 7 days. The clinical efficacy (cure rate) was evaluated at seven days after treatment completion. The clinical trial was performed in accordance with a part of evaluation on patients with community-acquired pneumonia (pp. 34 to 38) in “general guidelines for the evaluation of new antimicrobial agents for the treatment of respiratory tract infections (second version).”

S. aureus ATCC29213 [4] = assay: MIC of strain used for resistance frequency test; assay type: cell-based; details: Staphylococcus aureus; S. aureus ATCC29213; read-out: MIC
[5] = Concentration in tissue (human, oral administration): epithelial lining fluid, alveolar macrophages, plasma; assay type: in vivo; details: male, oral single dose 75 mg; for Kp: over 1 to 24 hours
Protocol: Concentration of compound D in lung tissue (epithelial lining fluid and alveolar macrophages) and plasma was measured to investigate intrapulmonary distribution of compound D after oral single administration of this drug, with reference to a method in Document (Antimicrobial Agents and Chemotherapy, February 2010, pp. 866-870).
The measurement was as follows. Healthy adult male volunteers were given oral single dose of compound D (75 mg). The bronchoalveolar lavage fluid and blood samples were collected from the subjects at 1, 2, 4, 6, and 24 hours after the administration. The collection of the fluid and blood samples was carried out at each time point for six subjects. The bronchoalveolar lavage fluid was centrifuged to separate from epithelial lining fluid and alveolar macrophages for measurement of the drug concentration. The concentrations of compound D in lung tissue and plasma were measured by LC/MS/MS.

S. pneumoniae SN9981 = assay: microbe, parasite or virus in culture; assay type: cell-based; details: Streptococcus pneumoniae
S. pneumoniae ST9941 = assay: microbe, parasite or virus in culture; assay type: cell-based; details: Streptococcus pneumoniae
[6] = human, 2.5 to 3.5 hours after administration; cited from earlier work
[7] = 400 mg, patients with bacterial pneumonia; cited from earlier work
[8] = consecutive administration, daily dose of 400 mg; cited from earlier work
[9] = alveolar macrophages, read-out: TISSUE DISTRIBUTION RATIO, ALVEOLAR MACROPHAGES
[10] = epithelial lining fluid, read-out: TISSUE DISTRIBUTION RATIO, ALVEOLAR EPITHELIAL LINING FLUID

Compound | development of resistant bacteria (in words) (S. aureus ATCC29213 [1]) | FREQUENCY OF DEVELOPMENT OF RESISTANT BACTERIA (AVERAGE OF TWO MEASURED VALUES) (S. aureus ATCC29213 [1]; S. aureus ATCC29213, 4 × MIC) | FREQUENCY OF DEVELOPMENT OF RESISTANT BACTERIA (AVERAGE OF TWO MEASURED VALUES) (S. aureus ATCC29213 [1]; S. aureus ATCC29213, 8 × MIC) | FREQUENCY OF DEVELOPMENT OF RESISTANT BACTERIA (AVERAGE OF TWO MEASURED VALUES) (S. aureus ATCC29213 [1]; S. aureus ATCC29213, 16 × MIC) | MIC (S. pneumoniae KY-9) [µg/mL] | MIC (S. aureus MS5935 2nd) [µg/mL] | MIC (S. pneumoniae ATCC49619) [µg/mL] | MIC (S. pneumoniae NF9884) [µg/mL] | MIC (S. aureus ATCC29213 [4]) [µg/mL] | MIC (S. pneumoniae SN9981) [µg/mL] | MIC (S. pneumoniae ST9941) [µg/mL] | also measured
COc1c(N2C[C@H](CNC3CC3)[C@H](F)C2)c(F)cc2c(=O)c(C(=O)O)cn(CCF)c12.Cl [Compound D, 7-[(3S,4S)-3-{(cyclopropylamino)methyl}-4-fluoropyrrolidine-1-yl]-6-fluoro-1-(2-fluoroethyl)-8-methoxy-4-oxo-1,4-dihydroquinoline-3-carboxylic acid hydrochloride] | not observed | <2.1 × 10^−9 | <2.1 × 10^−9 | <2.1 × 10^−9 | 0.06 | 0.125 | 0.06 | 0.125 | 0.008 | 0.25 | 0.5 | AUC ([2]; read-out: area under the curve (AUC)): 20600 ng·h/mL; Cmax ([2]; read-out: maximum drug concentration (Cmax)): 998 ng/mL; clinical efficacy (cure rate) [3]: 90.0%; Kp at 1 h [5, 9]: 31.9; Kp at 2 h [5, 9]: 18.5; Kp at 4 h [5, 9]: 21.9; Kp at 6 h [5, 9]: 56.4; Kp at 24 h [5, 9]: 38; Kp ([5]; alveolar macrophages, read-out: tissue distribution ratio in alveolar macrophages, range): 18.5 to 56.4; Kp at 1 h [5, 10]: 22.5; Kp at 2 h [5, 10]: 18.4; Kp at 4 h [5, 10]: 16.5; Kp at 6 h [5, 10]: 15.2; Kp at 24 h [5, 10]: 15; Kp ([5]; epithelial lining fluid, read-out: tissue distribution ratio in epithelial lining fluid, range): 15 to 22.5
C[C@H]1NCc2cc(-c3ccc4c(=O)c(C(=O)O)cn(C5CC5)c4c3OC(F)F)ccc21 [GRNX, garenoxacin] | developed | 8.2 × 10^−9* | <2.1 × 10^−9 | <2.1 × 10^−9 | 0.03 (≈ 0.0704 µM) | 2 (≈ 4.69 µM) | 0.06 (≈ 0.141 µM) | 0.125 (≈ 0.293 µM) | 0.015 | 1 (≈ 2.35 µM) | 2 (≈ 4.69 µM) | tissue distribution ratio in the alveolar macrophages [6]: 11.15±8.16; tissue distribution ratio in the epithelial lining fluid [6]: 0.95±0.41; clinical efficacy rate [7]: 94.9%; AUC [8]: 110.9 µg·h/mL; Cmax [8]: 11.06 µg/mL

From patent US20180042918A1, “RESPIRATORY INFECTION TREATING AGENT” (KYORIN PHARMACEUTICAL CO., LTD., priority 2015, published 2018)
